Experiments:
Assay type in all cases: binding
[1] = biological target: SW480 colon carcinoma cells lysate proteins (Homo sapiens, UniProt Q14315); details: PreyGene FLNC; SW480 cells
[2] = biological target: T1, SW480 colon carcinoma cells lysate proteins (Homo sapiens, UniProt P12081); details: PreyGene HARS
T1 sequence (P12081 1-509): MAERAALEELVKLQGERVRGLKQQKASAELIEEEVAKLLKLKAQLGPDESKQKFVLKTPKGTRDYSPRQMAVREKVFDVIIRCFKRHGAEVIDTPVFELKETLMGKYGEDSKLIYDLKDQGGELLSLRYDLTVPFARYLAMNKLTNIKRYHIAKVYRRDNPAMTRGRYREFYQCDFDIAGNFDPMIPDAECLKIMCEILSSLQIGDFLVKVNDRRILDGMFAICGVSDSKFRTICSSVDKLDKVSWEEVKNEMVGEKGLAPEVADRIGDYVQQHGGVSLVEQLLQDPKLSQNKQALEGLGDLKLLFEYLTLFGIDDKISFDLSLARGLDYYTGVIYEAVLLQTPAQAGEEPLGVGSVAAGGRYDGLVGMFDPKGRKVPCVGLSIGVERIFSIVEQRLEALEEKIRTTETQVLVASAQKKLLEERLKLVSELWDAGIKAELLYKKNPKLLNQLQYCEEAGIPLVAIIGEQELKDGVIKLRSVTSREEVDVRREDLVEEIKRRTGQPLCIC

[3] = biological target: SW480 colon carcinoma cells lysate proteins (Homo sapiens, UniProt P07355); details: PreyGene ANXA2
SW480 colon carcinoma cells lysate proteins (Homo sapiens, UniProt P07355), sequence (P07355 whole entry): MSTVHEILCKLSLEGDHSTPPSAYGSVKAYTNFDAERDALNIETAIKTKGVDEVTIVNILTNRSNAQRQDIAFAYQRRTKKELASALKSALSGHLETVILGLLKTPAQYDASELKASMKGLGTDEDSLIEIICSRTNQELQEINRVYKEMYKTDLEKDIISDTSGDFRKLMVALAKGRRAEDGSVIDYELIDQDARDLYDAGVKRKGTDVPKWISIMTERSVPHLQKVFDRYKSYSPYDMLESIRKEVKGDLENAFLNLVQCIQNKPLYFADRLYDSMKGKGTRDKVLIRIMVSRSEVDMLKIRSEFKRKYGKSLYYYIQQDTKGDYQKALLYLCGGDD

[4] = biological target: SW480 colon carcinoma cells lysate proteins (Homo sapiens, UniProt P53999); details: PreyGene SUB1
[5] = biological target: T2, SW480 colon carcinoma cells lysate proteins (Homo sapiens, UniProt P31949); details: PreyGene S100A11
T2 sequence (P31949 1-105): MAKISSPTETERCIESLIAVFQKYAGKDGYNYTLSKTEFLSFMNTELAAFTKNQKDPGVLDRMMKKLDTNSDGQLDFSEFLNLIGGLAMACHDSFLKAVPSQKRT

[6] = biological target: T3, SW480 colon carcinoma cells lysate proteins (Homo sapiens, UniProt P61916); details: PreyGene NPC2
T3 sequence (P61916 20-151): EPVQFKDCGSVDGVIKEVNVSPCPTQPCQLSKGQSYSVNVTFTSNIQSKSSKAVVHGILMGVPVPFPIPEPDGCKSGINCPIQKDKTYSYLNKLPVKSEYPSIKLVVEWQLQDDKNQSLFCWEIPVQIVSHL

[7] = biological target: T4, SW480 colon carcinoma cells lysate proteins (Homo sapiens, UniProt Q14019); details: PreyGene COTL1
T4 sequence (Q14019 1-142): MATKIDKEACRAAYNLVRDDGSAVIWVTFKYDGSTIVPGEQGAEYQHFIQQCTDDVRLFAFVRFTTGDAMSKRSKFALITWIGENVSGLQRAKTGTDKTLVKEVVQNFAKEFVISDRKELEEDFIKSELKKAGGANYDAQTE

[8] = biological target: T5, SW480 colon carcinoma cells lysate proteins (Homo sapiens, UniProt Q13126); details: PreyGene MTAP; SW480 cells
T5 sequence (Q13126 1-283): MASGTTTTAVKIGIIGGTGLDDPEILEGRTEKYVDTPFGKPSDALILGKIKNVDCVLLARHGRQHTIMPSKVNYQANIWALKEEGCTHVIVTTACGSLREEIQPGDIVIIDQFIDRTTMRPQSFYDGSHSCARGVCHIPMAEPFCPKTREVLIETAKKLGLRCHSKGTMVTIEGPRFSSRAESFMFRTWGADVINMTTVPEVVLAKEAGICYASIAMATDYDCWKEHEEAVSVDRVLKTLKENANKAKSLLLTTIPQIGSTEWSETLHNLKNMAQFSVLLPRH

SW480 colon carcinoma cells lysate proteins (Homo sapiens, UniProt Q14315), sequence (Q14315 whole entry): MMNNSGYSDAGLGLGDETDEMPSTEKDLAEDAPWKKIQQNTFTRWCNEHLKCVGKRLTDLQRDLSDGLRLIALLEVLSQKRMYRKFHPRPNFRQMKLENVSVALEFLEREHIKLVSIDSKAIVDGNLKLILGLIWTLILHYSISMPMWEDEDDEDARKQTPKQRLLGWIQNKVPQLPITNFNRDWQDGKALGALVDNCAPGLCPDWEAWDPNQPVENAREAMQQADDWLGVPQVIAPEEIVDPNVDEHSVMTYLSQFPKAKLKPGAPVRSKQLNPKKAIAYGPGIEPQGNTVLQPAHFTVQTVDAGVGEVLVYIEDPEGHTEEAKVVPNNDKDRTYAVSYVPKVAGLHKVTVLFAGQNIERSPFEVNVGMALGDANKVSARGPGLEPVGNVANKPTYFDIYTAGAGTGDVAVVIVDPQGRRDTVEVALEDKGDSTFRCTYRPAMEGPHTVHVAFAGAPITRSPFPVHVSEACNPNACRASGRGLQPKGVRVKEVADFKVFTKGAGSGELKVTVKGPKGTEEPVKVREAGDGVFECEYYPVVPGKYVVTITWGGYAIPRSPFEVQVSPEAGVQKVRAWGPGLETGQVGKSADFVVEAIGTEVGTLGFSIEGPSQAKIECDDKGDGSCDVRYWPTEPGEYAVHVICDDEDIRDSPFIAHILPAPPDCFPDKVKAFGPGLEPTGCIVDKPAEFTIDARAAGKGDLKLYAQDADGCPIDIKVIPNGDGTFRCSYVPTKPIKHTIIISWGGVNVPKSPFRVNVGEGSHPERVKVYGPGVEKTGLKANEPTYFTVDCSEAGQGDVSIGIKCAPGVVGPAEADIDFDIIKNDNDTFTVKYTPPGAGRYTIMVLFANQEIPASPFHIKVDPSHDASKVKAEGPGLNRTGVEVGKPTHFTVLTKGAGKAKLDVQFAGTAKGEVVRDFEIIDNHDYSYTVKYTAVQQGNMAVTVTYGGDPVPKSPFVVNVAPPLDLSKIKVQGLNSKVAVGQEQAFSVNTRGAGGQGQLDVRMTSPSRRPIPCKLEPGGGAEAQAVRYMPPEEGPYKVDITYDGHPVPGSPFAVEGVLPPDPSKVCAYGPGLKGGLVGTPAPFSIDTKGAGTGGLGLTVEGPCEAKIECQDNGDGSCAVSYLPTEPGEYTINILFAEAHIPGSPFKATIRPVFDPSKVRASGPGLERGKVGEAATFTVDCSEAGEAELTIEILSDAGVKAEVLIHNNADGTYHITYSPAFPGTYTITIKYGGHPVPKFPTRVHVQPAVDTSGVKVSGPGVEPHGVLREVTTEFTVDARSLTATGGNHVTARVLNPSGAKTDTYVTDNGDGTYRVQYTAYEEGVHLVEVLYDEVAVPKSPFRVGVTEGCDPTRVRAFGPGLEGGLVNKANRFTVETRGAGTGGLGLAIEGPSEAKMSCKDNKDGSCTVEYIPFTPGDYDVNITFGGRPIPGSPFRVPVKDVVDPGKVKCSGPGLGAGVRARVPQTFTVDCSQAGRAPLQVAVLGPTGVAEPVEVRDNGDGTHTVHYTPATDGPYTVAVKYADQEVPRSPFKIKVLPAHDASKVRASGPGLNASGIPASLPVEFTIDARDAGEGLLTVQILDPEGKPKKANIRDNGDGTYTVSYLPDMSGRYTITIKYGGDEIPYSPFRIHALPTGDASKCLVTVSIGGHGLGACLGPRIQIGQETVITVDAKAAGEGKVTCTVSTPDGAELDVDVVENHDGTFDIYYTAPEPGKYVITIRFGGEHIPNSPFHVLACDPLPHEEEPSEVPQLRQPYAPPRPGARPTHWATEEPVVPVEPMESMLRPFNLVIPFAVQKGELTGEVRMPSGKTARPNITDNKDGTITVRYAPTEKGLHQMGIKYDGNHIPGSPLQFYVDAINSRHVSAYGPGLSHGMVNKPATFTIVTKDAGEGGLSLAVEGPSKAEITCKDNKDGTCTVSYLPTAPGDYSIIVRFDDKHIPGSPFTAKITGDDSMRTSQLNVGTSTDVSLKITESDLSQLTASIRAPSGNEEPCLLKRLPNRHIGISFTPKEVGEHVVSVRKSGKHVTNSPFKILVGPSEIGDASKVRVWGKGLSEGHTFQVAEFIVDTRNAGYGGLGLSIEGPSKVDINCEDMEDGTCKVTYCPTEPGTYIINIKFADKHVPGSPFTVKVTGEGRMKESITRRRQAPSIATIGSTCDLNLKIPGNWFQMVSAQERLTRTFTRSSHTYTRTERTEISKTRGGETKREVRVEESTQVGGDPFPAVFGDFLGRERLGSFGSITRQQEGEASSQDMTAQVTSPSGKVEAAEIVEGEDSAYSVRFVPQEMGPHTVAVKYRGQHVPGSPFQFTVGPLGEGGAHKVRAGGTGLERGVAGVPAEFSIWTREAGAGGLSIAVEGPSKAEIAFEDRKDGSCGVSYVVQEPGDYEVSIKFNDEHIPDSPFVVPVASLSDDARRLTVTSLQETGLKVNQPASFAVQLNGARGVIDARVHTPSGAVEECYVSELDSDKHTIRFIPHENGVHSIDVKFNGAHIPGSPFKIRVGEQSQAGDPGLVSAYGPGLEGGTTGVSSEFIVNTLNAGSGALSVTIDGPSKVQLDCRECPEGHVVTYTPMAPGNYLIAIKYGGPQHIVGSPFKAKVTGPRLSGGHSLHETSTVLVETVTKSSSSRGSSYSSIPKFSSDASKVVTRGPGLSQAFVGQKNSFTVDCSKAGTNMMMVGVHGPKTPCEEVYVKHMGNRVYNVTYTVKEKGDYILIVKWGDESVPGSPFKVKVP

Structure (SMILES): C[C@H](Oc1cc(-c2cnn(C3CCNCC3)c2)cnc1N)c1c(Cl)ccc(F)c1Cl [(5)-crizotinib]
- AvgP [1]: 0
- SC.Exp. 1-1 [1]: 0
- SC.Exp. 1-2 [1]: 0
- SC.Exp. 2-1 [1]: 0
- SC.Exp. 2-2 [1]: 1
- SC.Exp. Sum [1]: 1
- AvgP [2]: 0.3676
- SC.Exp. 1-1 [2]: 3
- SC.Exp. 1-2 [2]: 3
- SC.Exp. 2-1 [2]: 0
- SC.Exp. 2-2 [2]: 0
- Sum (SC.Exp.) [2]: 6
- AvgP [3]: 0.41
- SC.Exp. 1-1 [3]: 13
- SC.Exp. 1-2 [3]: 13
- SC.Exp. 2-1 [3]: 0
- SC.Exp. 2-2 [3]: 0
- Sum (SC.Exp.) [3]: 26
- AvgP [4]: 0.206
- SC.Exp. 1-1 [4]: 5
- SC.Exp. 1-2 [4]: 5
- SC.Exp. 2-1 [4]: 2
- SC.Exp. 2-2 [4]: 4
- Sum (SC.Exp.) [4]: 16
- AvgP [5]: 0.3773
- SC.Exp. 1-1 [5]: 4
- SC.Exp. 1-2 [5]: 5
- SC.Exp. 2-1 [5]: 0
- SC.Exp. 2-2 [5]: 0
- Sum (SC.Exp.) [5]: 9
- AvgP [6]: 0.3813
- SC.Exp. 1-1 [6]: 2
- SC.Exp. 1-2 [6]: 2
- SC.Exp. 2-1 [6]: 0
- SC.Exp. 2-2 [6]: 0
- Sum (SC.Exp.) [6]: 4
- AvgP [7]: 0.4372
- SC.Exp. 1-1 [7]: 5
- SC.Exp. 1-2 [7]: 4
- SC.Exp. 2-1 [7]: 0
- SC.Exp. 2-2 [7]: 0
- Sum (SC.Exp.) [7]: 9
- AvgP [8]: 0
- SC.Exp. 1-1 [8]: 1
- SC.Exp. 1-2 [8]: 1
- SC.Exp. 2-1 [8]: 0
- SC.Exp. 2-2 [8]: 0
- SC.Exp. Sum [8]: 2
